# Patent US20150374755A1, “Treated Cells and Therapeutic Uses” (NHS BLOOD & TRANSPLANT, priority 2013, published 2015)
# System: CD4 and CD8 T lymphocytes
# Experiment: Suppression of stimulated T cell proliferation (CFSE) by drug pre-incubated MSC
# Type: cell-based, human
# Details: MSC pre-incubated with 50 ng/ml; FIG. 6
# Experimental: MSC derived from (FIG. 1A,E) bone marrow (BM) or (FIG. 1B-D) two independent umbilical cord (UC) preparations (WJ6060:FIG. 1B-C; WJ24-0: FIG. 1D) were incubated with Rapamycin overnight at concentrations from 0.4 to 50 ng/ml, or without drug (control (Ctl)). The MSC were washed, trypsinised, and plated in fresh medium without Rapamycin at 1, 5, and 25 k per well in 96 well plates. After 2-4 hours, human adult peripheral blood mononuclear cells (MNC) labelled with carboxyfluorescein succinimidyl ester (CFSE) were added, and the T lymphocytes therein were stimulated to proliferate with Phytohemagglutinin (PHA) (FIG. 1A-D) or anti-CD3, CD28 activation beads (FIG. 1E). Proliferation levels were determined after 3 days as described in the Methods section. […]
# After 3-4 (PHA or bead stimulation) or 5-6 days (allostimulation) the cultures were analysed by flow cytofluorometry after staining for CD3 and CD4, and the CFSE dye-dilution profiles of CD3+CD4+ (CD4) and CD3+CD4- (CD8) lymphocytes were used to calculate proliferation indices (Lyons (2000)). To normalise the level of proliferation between experiments, the proliferation indices were calculated as: (proliferation index for condition X−proliferation index for unstimulated cells)/(proliferation index for PHA or bead stimulated control cells−proliferation index for unstimulated cells). […]
structure (smiles),measurement,value
CCC(=O)N1CCN(c2ccc(-n3c(=O)ccc4cnc5ccc(-c6cnc7ccccc7c6)cc5c43)cc2C(F)(F)F)CC1 [Torin 1],super-suppression by pre-incubated MSC,no significant super-suppression
